Reference: ChEMBL document CHEMBL1127246, “1,2,5,6-tetrahydropyridine oxime ethers incorporating electron withdrawing groups are potent and selective muscarinic agonists” (Bioorg Med Chem Lett, 1994)

Legend:
[1] = biological target: Muscarinic acetylcholine receptor (Rattus norvegicus) (UniProt P08482+P08483+P08485+P08911+P10980); experiment: Selectivity is the ratio of inhibitory activities against muscarinic receptors, determined using radioligand [3H]OXO-M and 3[H}-QND; format: protein assay
[2] = biological target: Muscarinic acetylcholine receptor; experiment: In vitro binding affinity against Muscarinic receptor in rat cerebral cortex using [3H]- quinuclidinyl benzilate (QNB)using as a radioligand; format: tissue-based
[3] = biological target: Muscarinic acetylcholine receptor; experiment: In vitro binding affinity against Muscarinic receptor in rat cerebral cortex using [3H]- oxotremorine-M (OXO-M) using as a radioligand; Value ranges from 240-290; format: tissue-based
[4] = biological target: Muscarinic acetylcholine receptor; experiment: In vitro binding affinity against Muscarinic receptor in rat cerebral cortex using [3H]- quinuclidinyl benzilate (QNB)using as a radioligand; Value ranges from 11000-17000; format: tissue-based
[5] = biological target: Muscarinic acetylcholine receptor; experiment: In vitro binding affinity against Muscarinic receptor in rat cerebral cortex using [3H]- oxotremorine-M (OXO-M) using as a radioligand; Value ranges from 2300-3500; format: tissue-based
[6] = pKa value was measured; format: physicochemical
[7] = biological target: Muscarinic acetylcholine receptor; experiment: In vitro binding affinity against Muscarinic receptor in rat cerebral cortex using [3H]- quinuclidinyl benzilate (QNB)using as a radioligand; Value ranges from 1200-1800; format: tissue-based
[8] = Ratio of compound in rat rhythmical slow wave activity assay vs efficacy causing 50% decrease in BP in rats; format: functional
Rattus norvegicus [9] = experiment: Dose required to induce a standard increase in rhythmical slow wave activity (RSA) in rats when administered intravenously; format: functional
Rattus norvegicus [10] = experiment: Effective dose causing 50% decrease in mean blood pressure upon intravenous administration in rats; format: functional
[11] = biological target: Muscarinic acetylcholine receptor; experiment: In vitro binding affinity against Muscarinic receptor in rat cerebral cortex using [3H]- oxotremorine-M (OXO-M) using as a radioligand; Value ranges from 23-35; format: tissue-based
[12] = Partition coefficient (logP); format: physicochemical; conditions: octanol/water
[13] = biological target: Muscarinic acetylcholine receptor; experiment: In vitro binding affinity against Muscarinic receptor in rat cerebral cortex using [3H]- oxotremorine-M (OXO-M) using as a radioligand; Value ranges from 65-260; format: tissue-based
[14] = biological target: Muscarinic acetylcholine receptor; experiment: In vitro binding affinity against Muscarinic receptor in rat cerebral cortex using [3H]- quinuclidinyl benzilate (QNB)using as a radioligand; Value ranges from 9700-23000; format: tissue-based
[15] = biological target: Muscarinic acetylcholine receptor; experiment: In vitro binding affinity against Muscarinic receptor in rat cerebral cortex using [3H]- oxotremorine-M (OXO-M) using as a radioligand; format: tissue-based
[16] = biological target: Muscarinic acetylcholine receptor; experiment: In vitro binding affinity against Muscarinic receptor in rat cerebral cortex using [3H]- quinuclidinyl benzilate (QNB)using as a radioligand; Value ranges from 9100-9600; format: tissue-based
[17] = biological target: Muscarinic acetylcholine receptor; experiment: In vitro binding affinity against Muscarinic receptor in rat cerebral cortex using [3H]- oxotremorine-M (OXO-M) using as a radioligand; Value ranges from 840-1200; format: tissue-based
[18] = biological target: Muscarinic acetylcholine receptor; experiment: In vitro binding affinity against Muscarinic receptor in rat cerebral cortex using [3H]- oxotremorine-M (OXO-M) using as a radioligand; Value ranges from 120-220; format: tissue-based
[19] = biological target: Muscarinic acetylcholine receptor; experiment: In vitro binding affinity against Muscarinic receptor in rat cerebral cortex using [3H]- quinuclidinyl benzilate (QNB)using as a radioligand; Value ranges from 4300-9500; format: tissue-based
[20] = biological target: Muscarinic acetylcholine receptor; experiment: In vitro binding affinity against Muscarinic receptor in rat cerebral cortex using [3H]- quinuclidinyl benzilate (QNB)using as a radioligand; Value ranges from 1500-7200; format: tissue-based
[21] = biological target: Muscarinic acetylcholine receptor; experiment: In vitro binding affinity against Muscarinic receptor in rat cerebral cortex using [3H]- oxotremorine-M (OXO-M) using as a radioligand; Value ranges from 28-58; format: tissue-based
[22] = biological target: Muscarinic acetylcholine receptor; experiment: In vitro binding affinity against Muscarinic receptor in rat cerebral cortex using [3H]- quinuclidinyl benzilate (QNB)using as a radioligand; Value ranges from 2100-2300; format: tissue-based
[23] = biological target: Muscarinic acetylcholine receptor; experiment: In vitro binding affinity against Muscarinic receptor in rat cerebral cortex using [3H]- oxotremorine-M (OXO-M) using as a radioligand; Value ranges from 120-180; format: tissue-based
[24] = biological target: Muscarinic acetylcholine receptor; experiment: In vitro binding affinity against Muscarinic receptor in rat cerebral cortex using [3H]- quinuclidinyl benzilate (QNB)using as a radioligand; Value ranges from 4700-6700; format: tissue-based
[25] = biological target: Muscarinic acetylcholine receptor; experiment: In vitro binding affinity against Muscarinic receptor in rat cerebral cortex using [3H]- quinuclidinyl benzilate (QNB)using as a radioligand; Value ranges from 18000-23000; format: tissue-based
[26] = biological target: Muscarinic acetylcholine receptor; experiment: In vitro binding affinity against Muscarinic receptor in rat cerebral cortex using [3H]- oxotremorine-M (OXO-M) using as a radioligand; Value ranges from 46-110; format: tissue-based
[27] = biological target: Muscarinic acetylcholine receptor; experiment: In vitro binding affinity against Muscarinic receptor in rat cerebral cortex using [3H]- oxotremorine-M (OXO-M) using as a radioligand; Value ranges from 990-1300; format: tissue-based
[28] = biological target: Muscarinic acetylcholine receptor; experiment: In vitro binding affinity against Muscarinic receptor in rat cerebral cortex using [3H]- quinuclidinyl benzilate (QNB)using as a radioligand; Value ranges from 15000-15000; format: tissue-based
[29] = biological target: Muscarinic acetylcholine receptor; experiment: In vitro binding affinity against Muscarinic receptor in rat cerebral cortex using [3H]- quinuclidinyl benzilate (QNB)using as a radioligand; Value ranges from 8000-8500; format: tissue-based
[30] = biological target: Muscarinic acetylcholine receptor; experiment: In vitro binding affinity against Muscarinic receptor in rat cerebral cortex using [3H]- oxotremorine-M (OXO-M) using as a radioligand; Value ranges from 330-620; format: tissue-based

CO/N=C(\Cl)C1CN2CCC1CC2 (stereo not given)
Ratio [1]: 16

CO/N=C(\Cl)C1=CCCN(C)C1
IC50 [2]: 2800 nM | IC50 [3]: 260 nM | Ratio [1]: 11

CON=C(C1=CCCN(C)C1)C(F)(F)F
Ratio [1]: 5 | IC50 [4]: 13000 nM | IC50 [5]: 2800 nM

CO/N=C(\C#N)C1=CCCNC1
pKa [6]: 8.6 | IC50 [7]: 1500 nM | Ratio [1]: 54 | Ratio [8]: >10 | ED Arec (Rattus norvegicus [9]): 0.032 mg/kg | ED50 (Rattus norvegicus [10]): > 0.32 mg/kg | IC50 [11]: 28 nM | logP [12]: 1.41

CO/N=C/C1=CCCN(C)C1 [MILAMELINE]
pKa [6]: 8.21 | Ratio [1]: 130 | IC50 [13]: 110 nM | Ratio [8]: 1 | IC50 [14]: 14000 nM | ED Arec (Rattus norvegicus [9]): 0.15 mg/kg | ED50 (Rattus norvegicus [10]): 0.15 mg/kg | logP [12]: 1.45

CO/N=C(\CF)C1=CCCNC1
IC50 [2]: 17000 nM | IC50 [15]: 420 nM | Ratio [1]: 40

CO/N=C(\C1=CCCN(C)C1)C(F)(F)F
IC50 [15]: 11000 nM

CCN1CCC=C(/C(C#N)=N/OC)C1
IC50 [16]: 9400 nM | IC50 [17]: 1000 nM | Ratio [1]: 9

CO/N=C(\C#N)C1=CCCN(C)C1
pKa [6]: 7.65 | IC50 [18]: 150 nM | Ratio [1]: 30 | Ratio [8]: >6.3 | IC50 [19]: 4500 nM | ED Arec (Rattus norvegicus [9]): 0.16 mg/kg | ED50 (Rattus norvegicus [10]): > 1 mg/kg | logP [12]: 1.76

CO/N=C(\F)C1=CCCN(C)C1
pKa [6]: 7.39 | Ratio [1]: 100 | Ratio [8]: 0.74 | IC50 [20]: 4000 nM | ED Arec (Rattus norvegicus [9]): 0.054 mg/kg | ED50 (Rattus norvegicus [10]): 0.04 mg/kg | IC50 [21]: 39 nM | logP [12]: 1.48

CO/N=C(\F)C1CN2CCC1CC2 (stereo not given)
Ratio [1]: 65 | IC50 [22]: 2200 nM

CO/N=C(\Cl)C1=CCCNC1
IC50 [23]: 150 nM | Ratio [1]: 37 | IC50 [24]: 5600 nM

CO/N=C(\C#N)C1CN2CCC1CC2 (stereo not given)
Ratio [1]: 14 | Ratio [8]: >10.8

CO/N=C/C1=CCCNC1
pKa [6]: 9.18 | Ratio [1]: 280 | Ratio [8]: 3.5 | IC50 [25]: 20000 nM | ED Arec (Rattus norvegicus [9]): 0.019 mg/kg | ED50 (Rattus norvegicus [10]): 0.067 mg/kg | IC50 [26]: 71 nM | logP [12]: 1.01

CO/N=C(\F)C1=CCCNC1
IC50 [2]: 2900 nM | IC50 [15]: 41 nM | Ratio [1]: 70

CO/N=C(/C1=CCCN(C)C1)C(F)F
IC50 [27]: 1100 nM | Ratio [1]: 14 | IC50 [28]: 15000 nM

CO/N=C(\CF)C1=CCCN(C)C1
Ratio [1]: 18 | IC50 [29]: 8300 nM | IC50 [30]: 450 nM
